According to publication PMC5458547, “Discovery of first-in-class reversible dual small molecule inhibitors against G9a and DNMTs in hematological malignancies” (Nature Communications, 2017):

Tests used:
Test in all cases: KINOMEscan kinase profiling
Format in all cases: binding
BMPR2 = biological target: T1, BMPR2 (Homo sapiens, UniProt Q13873); conditions: read-out: Percent Control
T1 construct: purchased DiscoverX KINOMEscan (kinases); BPS Bioscience (epigenetic targets)
Method: (§1) Kinase Selectivity Profiling
(§2) (out of which 90 are non-mutant kinases) was performed at DiscoverRx (http://www.discoverx.com/home) using the KINOMEscan™ screening platform at a test concentration of 10 µM. Results for primary screen […]
(§3) positive control signal) / (negative control signal – positive control signal) *100, where negative control corresponds to DMSO treatment (100%) and positive control to the signal obtained with a control competitive compound (0%). […]
(§4) using the Hill equation. Each target was assayed in duplicate. […]

BTK = biological target: T2, BTK (Homo sapiens, UniProt Q06187)
T2 construct: purchased DiscoverRx (KINOMEscan contract screen)
T2 sequence (Q06187 whole entry): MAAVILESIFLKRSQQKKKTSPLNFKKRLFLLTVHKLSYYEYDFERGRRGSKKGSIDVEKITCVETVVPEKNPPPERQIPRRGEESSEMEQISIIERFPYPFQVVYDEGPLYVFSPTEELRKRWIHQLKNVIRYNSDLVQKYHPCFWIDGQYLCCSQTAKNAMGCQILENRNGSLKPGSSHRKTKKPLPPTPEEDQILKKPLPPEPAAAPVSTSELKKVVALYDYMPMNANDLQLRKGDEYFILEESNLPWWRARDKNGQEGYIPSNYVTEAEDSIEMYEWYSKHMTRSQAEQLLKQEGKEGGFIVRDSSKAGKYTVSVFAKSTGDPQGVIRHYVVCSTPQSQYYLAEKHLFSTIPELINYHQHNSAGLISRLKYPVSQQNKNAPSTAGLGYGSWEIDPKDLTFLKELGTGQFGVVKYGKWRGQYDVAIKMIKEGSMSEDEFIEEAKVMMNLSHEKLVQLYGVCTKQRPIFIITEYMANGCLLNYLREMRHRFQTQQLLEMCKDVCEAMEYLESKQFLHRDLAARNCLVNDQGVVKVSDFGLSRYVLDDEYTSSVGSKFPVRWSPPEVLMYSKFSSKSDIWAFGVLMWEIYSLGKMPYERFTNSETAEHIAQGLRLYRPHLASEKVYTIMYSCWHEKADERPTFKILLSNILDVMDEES
Method: as §1, §2, §3, §4

[1] = biological target: T3, RSK2(Kin.Dom.1-N-terminal) (Homo sapiens, UniProt P51812); conditions: read-out: Percent Control
T3 construct: RSK2(Kin.Dom.1-N-terminal); purchased DiscoverX KINOMEscan (kinases); BPS Bioscience (epigenetic targets)
Method: as §1, §2, §3, §4

SRC = biological target: T4, SRC (Homo sapiens, UniProt P12931); conditions: read-out: Percent Control
T4 construct: purchased DiscoverX KINOMEscan (kinases); BPS Bioscience (epigenetic targets)
Method: as §1, §2, §3, §4

JNK2 = biological target: T5, JNK2 (Homo sapiens, UniProt P45984); conditions: read-out: Percent Control
T5 construct: purchased DiscoverX KINOMEscan (kinases); BPS Bioscience (epigenetic targets)
Method: as §1, §2, §3, §4

CDK3 = biological target: T6, CDK3 (Homo sapiens, UniProt Q00526); conditions: read-out: Percent Control
T6 construct: purchased DiscoverX KINOMEscan (kinases); BPS Bioscience (epigenetic targets)
Method: as §1, §2, §3, §4

PLK4 = biological target: T7, PLK4 (Homo sapiens, UniProt O00444); conditions: read-out: Percent Control
T7 construct: purchased DiscoverX KINOMEscan (kinases); BPS Bioscience (epigenetic targets)
Method: as §1, §2, §3, §4

TIE2 = biological target: T8, TIE2 (Homo sapiens, UniProt Q02763); conditions: read-out: Percent Control
T8 construct: purchased DiscoverX KINOMEscan (kinases); BPS Bioscience (epigenetic targets)
Method: as §1, §2, §3, §4

PRKCE = biological target: T9, PRKCE (Homo sapiens, UniProt Q02156)
T9 construct: purchased DiscoverRx (DiscoverX), KINOMEscan screening platform
T9 sequence (Q02156 whole entry): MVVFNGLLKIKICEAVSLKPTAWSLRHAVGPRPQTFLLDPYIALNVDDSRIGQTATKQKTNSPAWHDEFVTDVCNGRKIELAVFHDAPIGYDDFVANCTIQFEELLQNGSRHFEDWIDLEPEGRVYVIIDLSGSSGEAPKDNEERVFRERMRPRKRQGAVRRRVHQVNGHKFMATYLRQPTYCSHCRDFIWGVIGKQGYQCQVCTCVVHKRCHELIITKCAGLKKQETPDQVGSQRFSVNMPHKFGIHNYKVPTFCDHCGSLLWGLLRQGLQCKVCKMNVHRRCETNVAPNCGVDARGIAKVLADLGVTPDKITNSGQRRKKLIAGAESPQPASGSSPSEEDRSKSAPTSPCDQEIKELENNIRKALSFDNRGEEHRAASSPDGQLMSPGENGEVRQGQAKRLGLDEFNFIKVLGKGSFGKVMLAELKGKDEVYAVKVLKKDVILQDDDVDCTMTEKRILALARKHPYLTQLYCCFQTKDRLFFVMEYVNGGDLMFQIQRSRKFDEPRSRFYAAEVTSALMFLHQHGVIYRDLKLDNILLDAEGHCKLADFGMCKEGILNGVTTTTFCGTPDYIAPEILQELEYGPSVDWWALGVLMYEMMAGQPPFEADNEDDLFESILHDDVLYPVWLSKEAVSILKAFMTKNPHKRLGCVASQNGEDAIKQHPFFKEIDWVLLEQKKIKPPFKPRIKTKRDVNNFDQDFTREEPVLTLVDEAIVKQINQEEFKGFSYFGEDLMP
Method: as §1, §2, §3, §4

PAK1 = biological target: T10, PAK1 (Homo sapiens, UniProt Q13153); conditions: read-out: Percent Control
T10 construct: purchased DiscoverX KINOMEscan (kinases); BPS Bioscience (epigenetic targets)
Method: as §1, §2, §3, §4

MAP3K4 = biological target: T11, MAP3K4 (Homo sapiens, UniProt Q9Y6R4); conditions: read-out: Percent Control
T11 construct: purchased DiscoverX KINOMEscan (kinases); BPS Bioscience (epigenetic targets)
Method: as §1, §2, §3, §4

INSR = biological target: T12, INSR (Homo sapiens, UniProt P06213); conditions: read-out: Percent Control
T12 construct: purchased DiscoverX KINOMEscan (kinases); BPS Bioscience (epigenetic targets)
Method: as §1, §2, §3, §4

PDGFRB = biological target: T13, PDGFRB (Homo sapiens, UniProt P09619); conditions: read-out: Percent Control
T13 construct: purchased DiscoverX KINOMEscan (kinases); BPS Bioscience (epigenetic targets)
Method: as §1, §2, §3, §4

IKK-alpha = biological target: T14, IKK-alpha (Homo sapiens, UniProt O15111); conditions: read-out: Percent Control
T14 construct: purchased DiscoverX KINOMEscan (kinases); BPS Bioscience (epigenetic targets)
Method: as §1, §2, §3, §4

RIOK2 = biological target: T15, RIOK2 (Homo sapiens, UniProt Q9BVS4); conditions: read-out: Percent Control
T15 construct: purchased DiscoverX KINOMEscan (kinases); BPS Bioscience (epigenetic targets)
Method: as §1, §2, §3, §4

TGFBR1 = biological target: T16, TGFBR1 (Homo sapiens, UniProt P36897); conditions: read-out: Percent Control
T16 construct: purchased DiscoverX KINOMEscan (kinases); BPS Bioscience (epigenetic targets)
Method: as §1, §2, §3, §4

PIK3CG = biological target: T17, PIK3CG (Homo sapiens, UniProt P48736); conditions: read-out: Percent Control
T17 construct: purchased DiscoverX KINOMEscan (kinases); BPS Bioscience (epigenetic targets)
Method: as §1, §2, §3, §4

EGFR(L858R) = biological target: T18, EGFR(L858R) (Homo sapiens, UniProt P00533, L858R); conditions: read-out: Percent Control
T18 construct: purchased DiscoverX KINOMEscan (kinases); BPS Bioscience (epigenetic targets)
Method: as §1, §2, §3, §4

FGFR2 = biological target: T19, FGFR2 (Homo sapiens, UniProt P21802); conditions: read-out: Percent Control
T19 construct: purchased DiscoverX KINOMEscan (kinases); BPS Bioscience (epigenetic targets)
T19 sequence (P21802 22-821): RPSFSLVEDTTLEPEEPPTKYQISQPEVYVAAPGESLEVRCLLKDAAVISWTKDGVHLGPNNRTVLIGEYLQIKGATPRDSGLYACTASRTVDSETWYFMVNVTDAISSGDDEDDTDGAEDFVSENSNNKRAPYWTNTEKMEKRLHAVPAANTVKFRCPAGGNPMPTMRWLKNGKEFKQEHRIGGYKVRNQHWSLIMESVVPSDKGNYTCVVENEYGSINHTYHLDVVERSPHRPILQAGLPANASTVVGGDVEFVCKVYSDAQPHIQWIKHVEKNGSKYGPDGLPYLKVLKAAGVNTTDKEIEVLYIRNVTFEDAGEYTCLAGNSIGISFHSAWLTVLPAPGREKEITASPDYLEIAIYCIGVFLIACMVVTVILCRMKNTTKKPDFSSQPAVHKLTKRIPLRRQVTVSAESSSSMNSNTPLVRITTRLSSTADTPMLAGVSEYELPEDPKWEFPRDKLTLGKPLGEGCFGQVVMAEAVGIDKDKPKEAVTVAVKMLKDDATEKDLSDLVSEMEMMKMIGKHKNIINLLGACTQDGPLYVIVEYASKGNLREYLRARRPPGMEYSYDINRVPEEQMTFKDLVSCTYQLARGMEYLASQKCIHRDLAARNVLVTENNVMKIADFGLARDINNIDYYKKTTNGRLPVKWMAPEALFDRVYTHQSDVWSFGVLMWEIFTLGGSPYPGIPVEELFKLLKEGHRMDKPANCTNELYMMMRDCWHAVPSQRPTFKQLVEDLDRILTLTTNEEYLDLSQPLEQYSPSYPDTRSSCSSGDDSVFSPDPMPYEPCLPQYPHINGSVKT
Method: as §1, §2, §3, §4

PDGFRA = biological target: T20, PDGFRA (Homo sapiens, UniProt P16234); conditions: read-out: Percent Control
T20 construct: purchased DiscoverX KINOMEscan (kinases); BPS Bioscience (epigenetic targets)
Method: as §1, §2, §3, §4

EPHA2 = biological target: T21, EPHA2 (Homo sapiens, UniProt P29317); conditions: read-out: Percent Control
T21 construct: purchased DiscoverX KINOMEscan (kinases); BPS Bioscience (epigenetic targets)
Method: as §1, §2, §3, §4

ERBB4 = biological target: T22, ERBB4 (Homo sapiens, UniProt Q15303); conditions: read-out: Percent Control
T22 construct: purchased DiscoverX KINOMEscan (kinases); BPS Bioscience (epigenetic targets)
Method: as §1, §2, §3, §4

FAK = biological target: T23, FAK (Homo sapiens, UniProt Q05397); conditions: read-out: Percent Control
T23 construct: purchased DiscoverX KINOMEscan (kinases); BPS Bioscience (epigenetic targets)
Method: as §1, §2, §3, §4

ADCK3 = biological target: T24, ADCK3 (Homo sapiens, UniProt Q8NI60); conditions: read-out: Percent Control
T24 construct: purchased DiscoverX KINOMEscan (kinases); BPS Bioscience (epigenetic targets)
Method: as §1, §2, §3, §4

TSSK1B = biological target: T25, TSSK1B (Homo sapiens, UniProt Q9BXA7); conditions: read-out: Percent Control
T25 construct: purchased DiscoverX KINOMEscan (kinases); BPS Bioscience (epigenetic targets)
T25 sequence (Q9BXA7 whole entry): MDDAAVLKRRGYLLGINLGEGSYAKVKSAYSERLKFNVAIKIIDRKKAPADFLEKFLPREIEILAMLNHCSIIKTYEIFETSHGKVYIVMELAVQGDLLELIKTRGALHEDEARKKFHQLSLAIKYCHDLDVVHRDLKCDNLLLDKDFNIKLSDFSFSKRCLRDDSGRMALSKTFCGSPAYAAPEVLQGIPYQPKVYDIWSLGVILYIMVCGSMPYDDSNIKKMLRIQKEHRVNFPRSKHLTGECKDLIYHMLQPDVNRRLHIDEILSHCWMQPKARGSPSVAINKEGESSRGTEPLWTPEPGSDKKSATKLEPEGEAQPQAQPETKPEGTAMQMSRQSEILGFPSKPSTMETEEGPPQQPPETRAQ
Method: as §1, §2, §3, §4

EGFR = biological target: T26, EGFR (Homo sapiens, UniProt P00533); conditions: read-out: Percent Control
T26 construct: purchased DiscoverX KINOMEscan (kinases); BPS Bioscience (epigenetic targets)
Method: as §1, §2, §3, §4

GSK3B = biological target: T27, GSK3B (Homo sapiens, UniProt P49841); conditions: read-out: Percent Control
T27 construct: purchased DiscoverX KINOMEscan (kinases); BPS Bioscience (epigenetic targets)
T27 sequence (P49841 whole entry): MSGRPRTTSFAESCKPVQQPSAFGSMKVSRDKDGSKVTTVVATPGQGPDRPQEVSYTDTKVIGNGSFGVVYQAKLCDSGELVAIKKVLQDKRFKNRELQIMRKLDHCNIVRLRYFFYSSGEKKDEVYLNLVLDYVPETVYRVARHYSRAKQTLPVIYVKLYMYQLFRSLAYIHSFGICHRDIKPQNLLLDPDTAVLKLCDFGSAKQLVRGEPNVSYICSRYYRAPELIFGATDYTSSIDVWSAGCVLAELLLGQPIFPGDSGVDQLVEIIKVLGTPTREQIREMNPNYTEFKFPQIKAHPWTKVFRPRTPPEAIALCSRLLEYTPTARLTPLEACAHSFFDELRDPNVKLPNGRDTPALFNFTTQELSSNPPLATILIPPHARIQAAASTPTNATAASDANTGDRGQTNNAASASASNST
Method: as §1, §2, §3, §4

MKNK1 = biological target: T28, MKNK1 (Homo sapiens, UniProt Q9BUB5); conditions: read-out: Percent Control
T28 construct: purchased DiscoverX KINOMEscan (kinases); BPS Bioscience (epigenetic targets)
Method: as §1, §2, §3, §4

IKK-beta = biological target: T29, IKK-beta (Homo sapiens, UniProt O14920); conditions: read-out: Percent Control
T29 construct: purchased DiscoverX KINOMEscan (kinases); BPS Bioscience (epigenetic targets)
Method: as §1, §2, §3, §4

JNK1 = biological target: T30, JNK1 (Homo sapiens, UniProt P45983); conditions: read-out: Percent Control
T30 construct: purchased DiscoverX KINOMEscan (kinases); BPS Bioscience (epigenetic targets)
Method: as §1, §2, §3, §4

PIM1 = biological target: T31, PIM1 (Homo sapiens, UniProt P11309); conditions: read-out: Percent Control
T31 construct: purchased DiscoverX KINOMEscan (kinases); BPS Bioscience (epigenetic targets)
Method: as §1, §2, §3, §4

PAK4 = biological target: T32, PAK4 (Homo sapiens, UniProt O96013); conditions: read-out: Percent Control
T32 construct: purchased DiscoverX KINOMEscan (kinases); BPS Bioscience (epigenetic targets)
Method: as §1, §2, §3, §4

ALK = biological target: T33, ALK (Homo sapiens, UniProt Q9UM73)
T33 construct: purchased DiscoverRx (KINOMEscan contract screen)
T33 sequence (Q9UM73 19-1620): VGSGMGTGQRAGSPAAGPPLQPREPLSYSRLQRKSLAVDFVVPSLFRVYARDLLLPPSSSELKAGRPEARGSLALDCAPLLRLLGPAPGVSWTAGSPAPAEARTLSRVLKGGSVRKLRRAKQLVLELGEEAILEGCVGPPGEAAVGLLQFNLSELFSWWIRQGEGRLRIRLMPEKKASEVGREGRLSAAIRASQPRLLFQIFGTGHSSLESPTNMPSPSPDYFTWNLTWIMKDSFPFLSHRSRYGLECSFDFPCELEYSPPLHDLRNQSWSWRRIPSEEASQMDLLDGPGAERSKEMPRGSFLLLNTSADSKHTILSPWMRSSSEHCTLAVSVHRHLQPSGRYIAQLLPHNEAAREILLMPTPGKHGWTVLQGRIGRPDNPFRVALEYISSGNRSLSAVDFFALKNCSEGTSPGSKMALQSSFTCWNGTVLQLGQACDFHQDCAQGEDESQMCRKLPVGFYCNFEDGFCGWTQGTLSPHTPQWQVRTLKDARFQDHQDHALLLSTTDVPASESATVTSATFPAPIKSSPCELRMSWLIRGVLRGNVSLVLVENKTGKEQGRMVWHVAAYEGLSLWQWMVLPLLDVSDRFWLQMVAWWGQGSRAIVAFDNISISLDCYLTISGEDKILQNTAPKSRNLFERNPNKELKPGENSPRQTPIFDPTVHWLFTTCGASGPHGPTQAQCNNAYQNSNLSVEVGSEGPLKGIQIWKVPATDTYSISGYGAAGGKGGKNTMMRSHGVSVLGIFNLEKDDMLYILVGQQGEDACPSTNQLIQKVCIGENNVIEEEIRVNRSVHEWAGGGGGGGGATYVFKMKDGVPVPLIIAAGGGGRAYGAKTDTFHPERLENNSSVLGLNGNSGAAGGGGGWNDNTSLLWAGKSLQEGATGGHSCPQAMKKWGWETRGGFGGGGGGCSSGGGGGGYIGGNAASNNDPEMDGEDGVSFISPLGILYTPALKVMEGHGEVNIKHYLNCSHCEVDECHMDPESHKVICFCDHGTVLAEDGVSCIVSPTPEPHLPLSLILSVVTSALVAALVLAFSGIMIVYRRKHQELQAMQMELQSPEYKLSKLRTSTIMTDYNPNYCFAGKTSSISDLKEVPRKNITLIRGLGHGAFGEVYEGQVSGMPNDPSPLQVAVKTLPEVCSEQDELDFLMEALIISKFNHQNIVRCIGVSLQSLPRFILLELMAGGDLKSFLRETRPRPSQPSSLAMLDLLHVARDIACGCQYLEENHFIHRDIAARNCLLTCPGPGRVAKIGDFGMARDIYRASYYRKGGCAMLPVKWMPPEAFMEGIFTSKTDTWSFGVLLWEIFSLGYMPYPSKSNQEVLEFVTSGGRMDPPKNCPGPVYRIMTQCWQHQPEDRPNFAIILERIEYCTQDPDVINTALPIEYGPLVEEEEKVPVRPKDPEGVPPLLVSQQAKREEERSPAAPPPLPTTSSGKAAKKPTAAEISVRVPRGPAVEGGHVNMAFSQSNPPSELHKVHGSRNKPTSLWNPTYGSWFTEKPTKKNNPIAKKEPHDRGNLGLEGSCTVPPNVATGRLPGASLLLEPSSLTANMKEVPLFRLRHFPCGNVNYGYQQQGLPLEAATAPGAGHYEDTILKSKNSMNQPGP
Method: as §1, §2, §3, §4

AKT1 = biological target: T34, AKT1 (Homo sapiens, UniProt P31749); conditions: read-out: Percent Control
T34 construct: purchased DiscoverX KINOMEscan (kinases); BPS Bioscience (epigenetic targets)
Method: as §1, §2, §3, §4

[2] = biological target: T35, JAK3(JH1domain-catalytic) (Homo sapiens, UniProt P52333)
T35 construct: JAK3(JH1domain-catalytic); purchased DiscoverRx (DiscoverX), KINOMEscan screening platform
T35 sequence (P52333 822-1111 limits assumed): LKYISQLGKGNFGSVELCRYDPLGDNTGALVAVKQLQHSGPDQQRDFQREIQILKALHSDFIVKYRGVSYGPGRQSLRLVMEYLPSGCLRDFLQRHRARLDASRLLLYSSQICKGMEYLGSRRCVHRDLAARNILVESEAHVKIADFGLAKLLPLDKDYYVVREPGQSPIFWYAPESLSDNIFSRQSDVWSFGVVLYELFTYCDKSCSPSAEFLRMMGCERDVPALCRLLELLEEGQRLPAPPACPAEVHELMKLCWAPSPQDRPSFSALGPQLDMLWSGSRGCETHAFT
Method: as §1, §2, §3, §4

CDK2 = biological target: T36, CDK2 (Homo sapiens, UniProt P24941); conditions: read-out: Percent Control
T36 construct: purchased DiscoverX KINOMEscan (kinases); BPS Bioscience (epigenetic targets)
Method: as §1, §2, §3, §4

CHEK1 = biological target: T37, CHEK1 (Homo sapiens, UniProt O14757); conditions: read-out: Percent Control
T37 construct: purchased DiscoverX KINOMEscan (kinases); BPS Bioscience (epigenetic targets)
Method: as §1, §2, §3, §4

BRAF = biological target: T38, BRAF (Homo sapiens, UniProt P15056); conditions: read-out: Percent Control
T38 construct: purchased DiscoverX KINOMEscan (kinases); BPS Bioscience (epigenetic targets)
Method: as §1, §2, §3, §4

KIT(V559D,T670I) = biological target: T39, KIT(V559D,T670I) (Homo sapiens, UniProt P10721, T670I/V559D); conditions: read-out: Percent Control
T39 construct: purchased DiscoverX KINOMEscan (kinases); BPS Bioscience (epigenetic targets)
Method: as §1, §2, §3, §4

[3] = 10 µM, read-out: Percent Control

COc1cc2c(NC3CCN(C)CC3)cc(-c3ccc(C)o3)nc2cc1OCCCN1CCCC1 [CM-272, 6-methoxy-2-(5-methyl-2-furyl)-N-(1-methyl-4-piperidyl)-7-(3-pyrrolidin-1-ylpropoxy)quinolin-4-amine]
remaining binding at 10 µM (BMPR2): 32% | remaining binding at 10 µM (BTK; [3]): 0.5% | Kd (BTK; KINOMEscan): 1100 nM | remaining binding at 10 µM [1]: 46% | remaining binding at 10 µM (SRC): 100% | remaining binding at 10 µM (JNK2): 34% | remaining binding at 10 µM (CDK3): 100% | remaining binding at 10 µM (PLK4): 80% | remaining binding at 10 µM (TIE2): 90% | remaining binding at 10 µM (PRKCE; [3]): 0% | Kd (PRKCE; KINOMEscan): 1200 nM | remaining binding at 10 µM (PAK1): 69% | remaining binding at 10 µM (MAP3K4): 93% | remaining binding at 10 µM (INSR): 5.1% | remaining binding at 10 µM (PDGFRB): 100% | remaining binding at 10 µM (IKK-alpha): 45% | remaining binding at 10 µM (RIOK2): 27% | remaining binding at 10 µM (TGFBR1): 78% | remaining binding at 10 µM (PIK3CG): 88% | remaining binding at 10 µM (EGFR(L858R)): 100% | remaining binding at 10 µM (FGFR2): 100% | remaining binding at 10 µM (PDGFRA): 14% | remaining binding at 10 µM (EPHA2): 100% | remaining binding at 10 µM (ERBB4): 97% | remaining binding at 10 µM (FAK): 96% | remaining binding at 10 µM (ADCK3): 100% | remaining binding at 10 µM (TSSK1B): 100% | remaining binding at 10 µM (EGFR): 100% | remaining binding at 10 µM (GSK3B): 61% | remaining binding at 10 µM (MKNK1): 1.4% | remaining binding at 10 µM (IKK-beta): 13% | remaining binding at 10 µM (JNK1): 25% | remaining binding at 10 µM (PIM1): 93% | remaining binding at 10 µM (PAK4): 100% | remaining binding at 10 µM (ALK; [3]): 0.5% | Kd (ALK; KINOMEscan): 820 nM | remaining binding at 10 µM (AKT1): 100% | remaining binding at 10 µM [2, 3]: 0% | Kd ([2]; KINOMEscan): 1800 nM | remaining binding at 10 µM (CDK2): 100% | remaining binding at 10 µM (CHEK1): 99% | remaining binding at 10 µM (BRAF): 14% | remaining binding at 10 µM (KIT(V559D,T670I)): 100%
